In patent US10512656B2, “Compositions and methods for the treatment of lysosomal storage disorders and disorders characterized by lysosomal dysfunction” (Baylor College of Medicine, priority 2016, dated 2019):

Legend:
[1] = system: Cln3^Δex7-8 mice; assay: Corpus callosum volume by MRI; assay type: in vivo, mouse; details: 12-month-old Cln3^Δex7-8 mice, trehalose; untreated 12.96±0.43 mm^3
Experimental: Mice were transcardially perfused before imaging. The head was removed and then the skin, muscle, ears, nose tip and lower jaw were removed to expose the skull. The head was fixed overnight in 4% paraformaldehyde at 4° C. The head was then transferred to 40 mLs of 0.01% sodium azide in PBS and rocked for 7 days at 4° C. The head was transferred to a solution of 5 mM gadopentetate dimeglumine (Bayer HealthCare Pharmaceuticals Inc., Wayne, N.J.) and 0.01% sodium azide in PBS and rocked for 25-35 days at 4° C. Incubation with gadopentetate dimeglumine improved the signal-to-noise ratio. Before imaging, the head was equilibrated to room temperature for 6-8 h.
A total of 48 scans per mouse were acquired on a 9.4 T Bruker Avance Biospec Spectrometer, 21-cm bore horizontal scanner with 35 mm volume resonator (Bruker BioSpin, Billerica, Mass.) with Paravision 5.0 software (Bruker Biospin, Billerica, Mass.). The three-dimensional DTI scan parameters are as follows: spin echo, b-value=0 and 1,000 s/mm^2, 20 diffusion directions with one non-diffusion weighted image, TR=500 ms, TE=14.8 ms, FOV=1.7×1.2×2.4 cm or 2.0×1.4×3.2 cm, matrix=128×96×96, NEX=1, δ=3 ms, Δ=7 ms. The acquisition time was ˜15 h.
The MRI images were first processed on DTI studio to extrapolate the fractional anisotropy. […]

[2] = system: TFEB S211; assay: TFEB S211 phosphorylation (Phospho(Ser)-14-3-3 binding motif immunoblot); assay type: cell-based, human; details: HeLa cells transfected with TFEB-Flag, trehalose 24 h
Experimental: FIG. 9. […] TFEB-Flag was immunoprecipitated from HeLa cells transfected with TFEB-Flag and treated with trehalose for 24 h or left untreated. Immunoblot analyses were performed using antibody against Phospho(Ser)-14-3-3 binding motif and control antibodies.

OC[C@H]1O[C@H](O[C@H]2O[C@H](CO)[C@@H](O)[C@H](O)[C@H]2O)[C@H](O)[C@@H](O)[C@@H]1O [trehalose, a-D-glucopyranosyl a-D-glucopyranoside]
corpus callosum volume [1]: 15.02±0.33 mm^3 | phosphorylation of TFEB S211 [2]: does not modify phosphorylation of TFEB S211
